In ChEMBL document CHEMBL3885861, “Open TG-GATES”:

Species: Rattus norvegicus
Test: Open TG-GATES - Regimen: Single
Type: toxicity, organism-based, Sprague-Dawley
Set-up: regimen Single, gender Male, age 6 weeks
Conditions: in vivo, po, route gavage; for APTT / Bas / Eos / Fbg / Hb / Ht / Lym / MCH / MCHC / MCV / Mono / Neu / PT / Plat / RBC / Ret / WBC: tissue Blood; for KIDNEY_L / KIDNEY_R / KIDNEY_TOTAL: tissue Kidney; for ALP / ALT / AST / CRE / Cl / DBIL / GLC / IP / K / LDH / Na / PL / RALB / TBIL / TC / TG / TP / gamma-GTP: tissue Plasma
[1] = 5 mg/kg, 3 h, dose level Middle
[2] = 5 mg/kg, 6 h, dose level Middle
[3] = 5 mg/kg, 9 h, dose level Middle
[4] = 5 mg/kg, 24 h, dose level Middle
[5] = 15 mg/kg, 24 h, dose level High

## COc1cc2c(c(OC)c1OC)-c1ccc(OC)c(=O)cc1[C@@H](NC(C)=O)CC2 [COLCHICINE]
[1]
  APTT: 16.4 s
  Bas: 0%
  Eos: 0.8%
  Fbg: 217.6 mg/dL
  Hb: 13.6 g/dL
  Ht: 41.3%
  Lym: 83.2%
  MCH: 21.9 pg
  MCHC: 32.8%
  MCV: 66.5 fL
  Mono: 7.2%
  Neu: 9.2%
  PT: 12.1 s
  Plat: 112.7 x10_4/uL
  RBC: 622 x10_4/ul
  Ret: 9.5%
  WBC: 111.5 x10_2/uL
  KIDNEY_L: 0.9 g
  KIDNEY_R: 1 g
  KIDNEY_TOTAL: 1.9 g
  ALP: 915.6 IU/L
  ALT: 52.6 IU/L
  AST: 119.2 IU/L
  CRE: 0.4 mg/dL
  Cl: 103.4 meq/L
  DBIL: 0.046 mg/dL
  GLC: 193.4 mg/dL
  IP: 9.1 mg/dL
  K: 4.5 meq/L
  LDH: 248 IU/L
  Na: 139 meq/L
  PL: 133.8 mg/dL
  RALB: 3.7 g/dL
  TBIL: 0.4 mg/dL
  TC: 79.6 mg/dL
  TG: 53 mg/dL
  TP: 5.5 g/dL
  gamma-GTP: 1 IU/L
[2]
  TERMINAL_BW: 218.4 g
  APTT: 17.4 s
  Bas: 0%
  Eos: 0.6%
  Fbg: 205.2 mg/dL
  Hb: 13.5 g/dL
  Ht: 41.4%
  Lym: 72.2%
  MCH: 21 pg
  MCHC: 32.6%
  MCV: 64.3 fL
  Mono: 10.8%
  Neu: 16.2%
  PT: 12.5 s
  Plat: 107.8 x10_4/uL
  RBC: 644.8 x10_4/ul
  Ret: 8.9%
  WBC: 105.2 x10_2/uL
  KIDNEY_L: 1 g
  KIDNEY_R: 1 g
  KIDNEY_TOTAL: 1.9 g
  ALP: 1038.4 IU/L
  ALT: 103.8 IU/L
  AST: 216.8 IU/L
  CRE: 0.5 mg/dL
  Cl: 103.2 meq/L
  DBIL: 0.048 mg/dL
  GLC: 180.2 mg/dL
  IP: 9.4 mg/dL
  K: 4.6 meq/L
  LDH: 340.6 IU/L
  Na: 139.6 meq/L
  PL: 118.4 mg/dL
  RALB: 3.7 g/dL
  TBIL: 0.4 mg/dL
  TC: 64 mg/dL
  TG: 35.2 mg/dL
  TP: 5.5 g/dL
  gamma-GTP: 1 IU/L
[3]
  TERMINAL_BW: 217.1 g
  APTT: 16.7 s
  Bas: 0%
  Eos: 1%
  Fbg: 207.8 mg/dL
  Hb: 13.6 g/dL
  Ht: 41.3%
  Lym: 67.4%
  MCH: 21.5 pg
  MCHC: 32.9%
  MCV: 65.4 fL
  Mono: 12%
  Neu: 20.4%
  PT: 12.6 s
  Plat: 108.3 x10_4/uL
  RBC: 631.6 x10_4/ul
  Ret: 9.1%
  WBC: 93.9 x10_2/uL
  KIDNEY_L: 1 g
  KIDNEY_R: 1 g
  KIDNEY_TOTAL: 2 g
  ALP: 1040.6 IU/L
  ALT: 165.4 IU/L
  AST: 290.6 IU/L
  CRE: 0.5 mg/dL
  Cl: 103.4 meq/L
  DBIL: 0.098 mg/dL
  GLC: 191.6 mg/dL
  IP: 8.8 mg/dL
  K: 5.1 meq/L
  LDH: 265.2 IU/L
  Na: 137 meq/L
  PL: 137.6 mg/dL
  RALB: 3.7 g/dL
  TBIL: 0.4 mg/dL
  TC: 79.2 mg/dL
  TG: 32 mg/dL
  TP: 5.4 g/dL
  gamma-GTP: 2.2 IU/L
[4]
  TERMINAL_BW: 226.2 g
  APTT: 16.3 s
  Bas: 0%
  Eos: 1%
  Fbg: 208.6 mg/dL
  Hb: 13.6 g/dL
  Ht: 41.5%
  Lym: 78.4%
  MCH: 21.6 pg
  MCHC: 32.8%
  MCV: 65.8 fL
  Mono: 9.8%
  Neu: 10.8%
  PT: 11.2 s
  Plat: 117.7 x10_4/uL
  RBC: 631.6 x10_4/ul
  Ret: 7.6%
  WBC: 120.4 x10_2/uL
  KIDNEY_L: 1 g
  KIDNEY_R: 1 g
  KIDNEY_TOTAL: 2 g
  ALP: 975.4 IU/L
  ALT: 65.4 IU/L
  AST: 110.6 IU/L
  CRE: 0.6 mg/dL
  Cl: 104 meq/L
  DBIL: 0.064 mg/dL
  GLC: 191.8 mg/dL
  IP: 5.3 mg/dL
  K: 4.7 meq/L
  LDH: 116 IU/L
  Na: 138 meq/L
  PL: 125.4 mg/dL
  RALB: 3.7 g/dL
  TBIL: 0.4 mg/dL
  TC: 71.2 mg/dL
  TG: 58 mg/dL
  TP: 5.6 g/dL
  gamma-GTP: 1.2 IU/L
15 mg/kg, 3 h, dose level High
  TERMINAL_BW: 219.9 g
  APTT: 17.2 s
  Bas: 0%
  Eos: 0.8%
  Fbg: 212.4 mg/dL
  Hb: 13.4 g/dL
  Ht: 40.8%
  Lym: 76.2%
  MCH: 21.9 pg
  MCHC: 33%
  MCV: 66.3 fL
  Mono: 13%
  Neu: 10%
  PT: 12.3 s
  Plat: 111.2 x10_4/uL
  RBC: 614.8 x10_4/ul
  Ret: 9.9%
  WBC: 105.1 x10_2/uL
  KIDNEY_L: 1 g
  KIDNEY_R: 1 g
  KIDNEY_TOTAL: 2 g
  ALP: 859.4 IU/L
  ALT: 59.8 IU/L
  AST: 152.8 IU/L
  CRE: 0.5 mg/dL
  Cl: 105.2 meq/L
  DBIL: 0.03 mg/dL
  GLC: 184.8 mg/dL
  IP: 9.3 mg/dL
  K: 4.6 meq/L
  LDH: 377.8 IU/L
  Na: 138.6 meq/L
  PL: 113.4 mg/dL
  RALB: 3.7 g/dL
  TBIL: 0.4 mg/dL
  TC: 75.2 mg/dL
  TG: 21.4 mg/dL
  TP: 5.6 g/dL
  gamma-GTP: 2.4 IU/L
15 mg/kg, 6 h, dose level High
  TERMINAL_BW: 220.6 g
  APTT: 17.3 s
  Bas: 0%
  Eos: 0.8%
  Fbg: 215 mg/dL
  Hb: 14.5 g/dL
  Ht: 44.5%
  Lym: 69.6%
  MCH: 21.2 pg
  MCHC: 32.7%
  MCV: 65 fL
  Mono: 6.2%
  Neu: 24%
  PT: 14.1 s
  Plat: 109.9 x10_4/uL
  RBC: 684.6 x10_4/ul
  Ret: 8.3%
  WBC: 68.3 x10_2/uL
  KIDNEY_L: 1 g
  KIDNEY_R: 1 g
  KIDNEY_TOTAL: 2 g
  ALP: 1105.6 IU/L
  ALT: 257.8 IU/L
  AST: 651.4 IU/L
  CRE: 0.5 mg/dL
  Cl: 104.2 meq/L
  DBIL: 0.1 mg/dL
  GLC: 174.8 mg/dL
  IP: 9.5 mg/dL
  K: 4.8 meq/L
  LDH: 1373 IU/L
  Na: 139.8 meq/L
  PL: 101.2 mg/dL
  RALB: 3.7 g/dL
  TBIL: 0.5 mg/dL
  TC: 66.8 mg/dL
  TG: 12.2 mg/dL
  TP: 5.5 g/dL
  gamma-GTP: 2 IU/L
15 mg/kg, 9 h, dose level High
  TERMINAL_BW: 217.2 g
  APTT: 17.8 s
  Bas: 0%
  Eos: 0.6%
  Fbg: 203.8 mg/dL
  Hb: 14.9 g/dL
  Ht: 45.2%
  Lym: 50.6%
  MCH: 21.1 pg
  MCHC: 32.8%
  MCV: 64.3 fL
  Mono: 12.2%
  Neu: 36.8%
  PT: 14.8 s
  Plat: 99 x10_4/uL
  RBC: 704.2 x10_4/ul
  Ret: 7.7%
  WBC: 52.6 x10_2/uL
  KIDNEY_L: 1 g
  KIDNEY_R: 1 g
  KIDNEY_TOTAL: 1.9 g
  ALP: 1469.6 IU/L
  ALT: 302.8 IU/L
  AST: 623.8 IU/L
  CRE: 0.5 mg/dL
  Cl: 101.8 meq/L
  DBIL: 0.3 mg/dL
  GLC: 171 mg/dL
  IP: 8.1 mg/dL
  K: 4.7 meq/L
  LDH: 1091.2 IU/L
  Na: 137 meq/L
  PL: 126 mg/dL
  RALB: 3.8 g/dL
  TBIL: 0.6 mg/dL
  TC: 86.2 mg/dL
  TG: 9.4 mg/dL
  TP: 5.5 g/dL
  gamma-GTP: 2 IU/L
[5]
  TERMINAL_BW: 208.7 g
  APTT: 18 s
  Bas: 0%
  Eos: 0.6%
  Fbg: 171 mg/dL
  Hb: 15.6 g/dL
  Ht: 47.7%
  Lym: 73.4%
  MCH: 20.5 pg
  MCHC: 32.9%
  MCV: 62.4 fL
  Mono: 9.8%
  Neu: 16.2%
  PT: 12.5 s
  Plat: 121.1 x10_4/uL
  RBC: 763.8 x10_4/ul
  Ret: 6.3%
  WBC: 78.2 x10_2/uL
  KIDNEY_L: 1 g
  KIDNEY_R: 1 g
  KIDNEY_TOTAL: 2 g
  ALP: 1599.2 IU/L
  ALT: 160.4 IU/L
  AST: 350.8 IU/L
  CRE: 0.6 mg/dL
  Cl: 104 meq/L
  DBIL: 0.1 mg/dL
  GLC: 176 mg/dL
  IP: 7.8 mg/dL
  K: 5.2 meq/L
  LDH: 172.4 IU/L
  Na: 136.8 meq/L
  PL: 116.4 mg/dL
  RALB: 3.3 g/dL
  TBIL: 0.5 mg/dL
  TC: 60.8 mg/dL
  TG: 16.8 mg/dL
  TP: 5.1 g/dL
  gamma-GTP: 1.4 IU/L
